US20240262803A1, “COMPOUNDS, COMPOSITIONS AND METHODS OF TREATING DISORDERS” (Chungdu Anticancer Bioscience Ltd, priority 2021, published 2024)
“Also recorded” adds a separate entry of the source.

Columns and labels:
[1] = tested on: lung cancer cell line A549; assay: MTT assay of cellular proliferation, A549; format: cell-based; conditions: Homo sapiens, read-out: EC50: Concentration that inhibits 50% of proliferation
In short: (§1)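 Cells were grown in DMEM with 5% FBS, glutamine and pyruvate at 37 °C, 5% CO2, seeded to reach 20˜30% confluence after 15˜24 h, then exposed to compounds from 1 nM to 10 μM. Formazan from MTT was read at 570 nm, and EC50 was the concentration giving 50% inhibition of proliferation.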

[2] = tested on: human lung cancer cell line NCI-H23; assay: Soft agar colony formation assay, NCI-H23; format: cell-based; conditions: NCI-H23, 3D culture, FIG. 2
Description: (§2) Six lung cancer cell lines (NCI-H23, NCI-H460, NCI-H596, NCI-H2170, Calu-6 and A549), two colon cancer cell lines (HCT116 and SW460), one breast cancer cell line MDA-MB-231, one gastric cancer cell line NCI-N87, one prostate cancer cell line DU145, one cervical cancer cell line Hela, and one glioblastoma cell line T98G were obtained from ATCC. The T2 HCC cell line was derived from a mouse liver cancer model initiated by a transgene of MYC (Reference). All cell lines were cultured in DMEM (Gibco, Cleveland, TN, USA) supplemented with 5% fetal bovine serum (Gibco), penicillin (100 U/mL)-streptomycin (100 μg/mL) (Gibco, Cat. No. 15140-122), 2 mM L-glutamine (Gibco, 200 mM solution, Cat. No. 25030081), and 1 mM sodium pyruvate (Gibco, 100 mM solution, Cat. No. 11360070) at 37° C. in a humidified incubator that was maintained at 5% CO2.
(§3) Measuring the ability of cells to grow in soft agar has been popularly believed as the gold standard assay for cellular transformation in vitro. In the Soft Agar Assay, cells grow from single cells to cell colonies in a semi-solid agar solution that keeps them away from the solid surface and allows growth in an anchorage-independent way.
The anchorage-independent growth of cells is one of the hallmarks of cancer cells. Normal epithelial cells are supported by basement membranes that provide survival and proliferative signals while undergo a type of apoptosis called anoikis when lose their attachment to the extracellular matrix. Cancer cells, in contrast, evade attachment-induced apoptosis, leading to uncontrolled proliferation and metastasis. The Soft Agar Colony Formation Assay allows testing of the therapeutic efficacy of compounds against anchorage-independent 3D growth of cancer cells in vitro. The assay was performed in 6-well plates with two layers of agar. For the first, 0.75% agar in DMEM medium was melted in a microwave oven and poured to form a bottom layer. […] Cell culture medium was changed once every two days until colonies were ready to photograph. […]

[3] = tested on: cervical cancer cell line Hela; assay: MTT assay of cellular proliferation, Hela; format: cell-based; conditions: Homo sapiens, read-out: EC50: Concentration that inhibits 50% of proliferation
In short: as §1

[4] = tested on: colon cancer cell line SW460; assay: MTT assay of cellular proliferation, SW460; format: cell-based; conditions: Homo sapiens, SW480; read-out: EC50: Concentration that inhibits 50% of proliferation
In short: as §1

SW480 = assay: Minimal effective concentration that elicits polyploidy, SW480; format: cell-based; conditions: Homo sapiens, read-out: MECP: Minimal effective concentration that elicits polyploidy
RPEMYC^H2B-GFP cells = assay: Mechanism-informed phenotypic screening assay (mitotic arrest, polyploidy; GE IN-Cell Analyzer 2000); format: cell-based; conditions: 20 nM to 20 μM, 24, 48 or 72 hours, read-out: Min. Effective conc. for polyploidy (≥5%)
In short: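 RPEMYC^H2B-GFP cells expressing Histone 2B-EGFP were treated with compounds at 20 nM to 20 μM. Mitotic arrest and DNA content were imaged at 24, 48 or 72 h. Minimal effective concentrations eliciting polyploidy are given as letter bins.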

[5] = tested on: glioblastoma cell line T98G; assay: MTT assay of cellular proliferation, T98G; format: cell-based; conditions: Homo sapiens, read-out: EC50: Concentration that inhibits 50% of proliferation
Description: as §2
The MTT assay measures cellular metabolic activity as a proxy for cell viability and involves the conversion of the water-soluble yellow dye MTT [3-(4,5-dimethylthiazol-2-yl)-2,5-diphenyltetrazolium bromide] into an insoluble purple formazan by the action of mitochondrial reductase. Formazan is then solubilized and its concentration is determined by measuring the optical density (OD) value at a wavelength of 570 nm. The value is in proportional to the number of live cells with excellent linearity up to ˜10^6 cells per well. The MTT assay was used to determine the EC50 value, the concentration of a compound that leads to 50% inhibition of cellular proliferation. Briefly, cells were split when growing to the mid-Log phase. Cells in 100 μL of culture medium were seeded into each well of 96-well microplates and cultivated for 15˜24 hours to reach a confluence of 20˜30% and were then exposed to drugs at concentrations ranging from 1 nM to 10 μM. At the endpoint, 20 μL of a MTT stock solution in DMSO (5 mg/mL) was added to each well that contains […] of DMEM. The microplates were left in the cell culture incubator for 3˜4 h before subjected to solubilization and determination of formazan at A570 in a microplate reader (BioTek ELX808iu). […] Therefore, these compounds might hold a broad utility in the treatment of a large variety of human malignancies.

[6] = tested on: gastric cancer cell line NCI-N87; assay: MTT assay of cellular proliferation, NCI-N87; format: cell-based; conditions: Homo sapiens, read-out: EC50: Concentration that inhibits 50% of proliferation
In short: as §1

[7] = tested on: cervical cancer cell line Hela; assay: Soft agar colony formation assay, Hela; format: cell-based, human; conditions: 3D culture, FIG. 2
Description: as §2, §3
The anchorage-independent growth of cells is one of the hallmarks of cancer cells. […] Cell culture medium was changed once every two days until colonies were ready to photograph. […]

EC50 [1] [µM]	EC50 [3] [µM]	EC50 [4] [µM]	EC50 [5] [µM]	EC50 [6] [µM]	Structure (SMILES)	anchorage-independent growth in soft agar [2]	minimal effective concentration (SW480) [µM]	minimal effective concentration (RPEMYC^H2B-GFP cells) [µM]	anchorage-independent growth in soft agar [7]
10 to 30	0.001 to 1	0.001 to 1	0.001 to 1	0.001 to 1	COC(=O)c1cc(OC)cc(Oc2ncccc2-c2ccncc2)c1 [Compound 2, Methyl 3-([3,4′-bipyridin]-2-yloxy)-5-methoxybenzoate]	Suppresses the Anchorage-independent Growth; also recorded: completely blocked the growth	0.001 to 1	1	
	0.001 to 1		1 to 10	0.001 to 1	COC(=O)c1cc(Oc2ncccc2-c2ccnc(N)n2)cc(C(=O)OC)c1 [Compound 21, dimethyl 5-((3-(2-aminopyrimidin-4-yl)pyridin-2-yl)oxy)isophthalate]			1	Suppress the Anchorage-independent Growth; also recorded: effectively suppressed the anchorage-independent growth
10 to 30	0.001 to 1		0.001 to 1	0.001 to 1	COC(=O)c1cc(Oc2ncccc2-c2ccncc2)cc(C(=O)OC)c1 [Compound 1, Dimethyl 5-([3,4′-bipyridin]-2-yloxy)isophthalate]	completely blocked the growth		1	Suppress the Anchorage-independent Growth; also recorded: effectively suppressed the anchorage-independent growth
10 to 30	0.001 to 1	0.001 to 1	10 to 30	0.001 to 1	COC(=O)c1cc(OC)cc(Oc2ncccc2-c2ccnc(N)n2)c1 [Compound 23, Methyl 3-((3-(2-aminopyrimidin-4-yl)pyridin-2-yl)oxy)-5-methoxybenzoate]	Suppress the Anchorage-independent Growth; also recorded: completely blocked the growth	0.001 to 1	1	
